# According to ChEMBL document CHEMBL1201862, “PubChem BioAssay data set” (2004):
# Active and inactive are the calls of the source.
# Tests used:
# [1] = Luminescence Cell-Based Dose Retest to Confirm Inhibitors of Cancer Stem Cells. [Related pubchem assays (depositor defined):AID2717, AID2721]; assay type: functional; settings: Homo sapiens
# Genome polyprotein = Genome polyprotein (dengue virus type 2, UniProt P29990); assay: flavivirus cap methylation enzyme inhibition – biochemical, confirmation dose response, primary screen (AID 588689); assay type: functional
# Sequence of Genome polyprotein (P29990 2492-3391 limits assumed): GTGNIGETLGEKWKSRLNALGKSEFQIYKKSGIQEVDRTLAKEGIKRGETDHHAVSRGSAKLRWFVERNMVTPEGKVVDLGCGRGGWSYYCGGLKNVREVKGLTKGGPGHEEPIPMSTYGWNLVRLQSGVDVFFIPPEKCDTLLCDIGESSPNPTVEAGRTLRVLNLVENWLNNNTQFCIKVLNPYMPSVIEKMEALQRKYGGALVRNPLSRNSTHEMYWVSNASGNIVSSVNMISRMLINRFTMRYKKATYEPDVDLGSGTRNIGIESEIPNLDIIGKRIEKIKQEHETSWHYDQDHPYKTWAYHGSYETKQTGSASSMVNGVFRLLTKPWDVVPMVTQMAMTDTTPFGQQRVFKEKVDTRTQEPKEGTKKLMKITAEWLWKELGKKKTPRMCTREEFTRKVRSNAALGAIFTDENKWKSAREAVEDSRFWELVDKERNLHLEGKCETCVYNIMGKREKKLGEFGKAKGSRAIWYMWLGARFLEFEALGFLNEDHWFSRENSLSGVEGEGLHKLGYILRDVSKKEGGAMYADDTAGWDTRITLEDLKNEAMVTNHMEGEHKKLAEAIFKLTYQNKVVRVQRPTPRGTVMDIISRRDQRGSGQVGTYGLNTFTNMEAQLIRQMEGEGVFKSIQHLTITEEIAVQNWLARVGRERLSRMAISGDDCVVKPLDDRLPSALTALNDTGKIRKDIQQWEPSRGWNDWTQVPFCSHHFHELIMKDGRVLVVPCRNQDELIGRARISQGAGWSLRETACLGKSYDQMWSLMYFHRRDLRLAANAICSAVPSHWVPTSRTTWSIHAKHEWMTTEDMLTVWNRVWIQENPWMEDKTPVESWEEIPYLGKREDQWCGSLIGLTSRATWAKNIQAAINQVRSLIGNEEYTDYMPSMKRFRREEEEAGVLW
# H4 = assay: Luminescence Cell-Based Dose Response HTS to Identify Activators of 5'UTR Stem-Loop Driven Prion Protein mRNA Translation in H4 Neuroglioblastoma Cells. [Related pubchem assays: 1829 (Project Summary), 1814 (Primary HTS)]; assay type: functional; settings: Homo sapiens
# [2] = Luminescence Cell-Based Dose Response HTS to Identify Activators of Luciferase Translation or Activity in H4 […] Cells. [Related pubchem assays: 1829 (Project Summary), 1814 (Primary HTS)]; assay type: functional
# [3] = Luminescence Cell-Based Dose Confirmation HTS to Identify Activators of 5'UTR Stem-Loop Driven Alpha-Synuclein mRNA Translation in H4 Neuroglioblastoma Cells. [Related pubchem assays: 1829 (Project Summary), 1814 (Primary HTS)]; assay type: functional
# [4] = target: FAD-linked sulfhydryl oxidase ALR (Homo sapiens, UniProt P55789); assay: ALR-catalysed DTT oxidation blockers – biochemical, H2O2 detection, luminescence, cherry-pick, dose response (AID 493248)
# Sequence of FAD-linked sulfhydryl oxidase ALR (P55789 whole entry): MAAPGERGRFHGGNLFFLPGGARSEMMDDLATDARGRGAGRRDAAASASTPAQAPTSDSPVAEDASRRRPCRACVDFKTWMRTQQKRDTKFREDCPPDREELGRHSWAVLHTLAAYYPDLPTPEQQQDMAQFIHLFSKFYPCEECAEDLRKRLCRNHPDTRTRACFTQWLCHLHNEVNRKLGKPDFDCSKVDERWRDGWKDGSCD
# [5] = target: T1, Rac GTPase-activating protein 1 (Homo sapiens, UniProt Q9H0H5); assay: blockers of MgcRacGAP-driven Rac1 GTP hydrolysis – biochemical, ADP Hunter fluorescence, primary and confirmatory, confirmation (AID 624330); assay type: functional
# T1 sequence (Q9H0H5 whole entry): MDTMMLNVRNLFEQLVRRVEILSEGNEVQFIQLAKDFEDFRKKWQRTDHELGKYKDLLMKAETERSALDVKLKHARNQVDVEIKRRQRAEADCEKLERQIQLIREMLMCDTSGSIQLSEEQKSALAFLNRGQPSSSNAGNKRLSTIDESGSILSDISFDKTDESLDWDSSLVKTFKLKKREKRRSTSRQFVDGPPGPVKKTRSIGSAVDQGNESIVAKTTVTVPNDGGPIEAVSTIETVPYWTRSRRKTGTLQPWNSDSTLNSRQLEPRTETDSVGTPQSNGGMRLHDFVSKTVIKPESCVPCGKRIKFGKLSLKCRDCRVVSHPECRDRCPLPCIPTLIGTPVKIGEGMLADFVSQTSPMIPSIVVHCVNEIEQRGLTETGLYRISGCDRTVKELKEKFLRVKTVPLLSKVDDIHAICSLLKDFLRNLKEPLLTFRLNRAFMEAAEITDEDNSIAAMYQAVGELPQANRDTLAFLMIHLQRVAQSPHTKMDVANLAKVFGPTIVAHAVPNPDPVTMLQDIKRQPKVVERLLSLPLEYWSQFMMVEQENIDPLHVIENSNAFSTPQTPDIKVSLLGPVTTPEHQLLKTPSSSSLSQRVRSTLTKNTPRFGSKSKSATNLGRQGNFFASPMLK
# P388 = assay: cells; assay type: functional; settings: Mus musculus
# P388/ADR = assay: cells; assay type: functional; settings: Mus musculus
# SN12K1 = assay: cells; assay type: functional; settings: Homo sapiens
# Cytochrome P450 2C19 = Cytochrome P450 2C19 (Homo sapiens, UniProt P33261); assay: Cytochrome panel assay with activity outcomes. Panel member name: p450-cyp2c19 Compounds with AC50 equal or less than 10 uM are considered active; assay type: functional
# Sequence of Cytochrome P450 2C19 (P33261 whole entry): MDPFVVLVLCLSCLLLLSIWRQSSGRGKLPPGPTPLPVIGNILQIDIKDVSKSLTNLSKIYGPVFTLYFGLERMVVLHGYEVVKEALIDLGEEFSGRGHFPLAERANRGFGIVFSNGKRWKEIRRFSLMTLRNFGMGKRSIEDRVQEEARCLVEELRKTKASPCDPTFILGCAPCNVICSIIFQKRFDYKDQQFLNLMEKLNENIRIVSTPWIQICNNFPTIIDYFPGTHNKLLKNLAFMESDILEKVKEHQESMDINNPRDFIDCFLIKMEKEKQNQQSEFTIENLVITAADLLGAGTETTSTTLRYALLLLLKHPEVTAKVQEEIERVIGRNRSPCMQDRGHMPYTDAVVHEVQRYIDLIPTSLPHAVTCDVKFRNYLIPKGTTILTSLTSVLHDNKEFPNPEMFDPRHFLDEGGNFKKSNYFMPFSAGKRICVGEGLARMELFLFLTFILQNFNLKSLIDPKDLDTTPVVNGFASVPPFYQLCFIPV
# Cytochrome P450 2C9 = Cytochrome P450 2C9 (Homo sapiens, UniProt P11712)
# Sequence of Cytochrome P450 2C9 (P11712 whole entry): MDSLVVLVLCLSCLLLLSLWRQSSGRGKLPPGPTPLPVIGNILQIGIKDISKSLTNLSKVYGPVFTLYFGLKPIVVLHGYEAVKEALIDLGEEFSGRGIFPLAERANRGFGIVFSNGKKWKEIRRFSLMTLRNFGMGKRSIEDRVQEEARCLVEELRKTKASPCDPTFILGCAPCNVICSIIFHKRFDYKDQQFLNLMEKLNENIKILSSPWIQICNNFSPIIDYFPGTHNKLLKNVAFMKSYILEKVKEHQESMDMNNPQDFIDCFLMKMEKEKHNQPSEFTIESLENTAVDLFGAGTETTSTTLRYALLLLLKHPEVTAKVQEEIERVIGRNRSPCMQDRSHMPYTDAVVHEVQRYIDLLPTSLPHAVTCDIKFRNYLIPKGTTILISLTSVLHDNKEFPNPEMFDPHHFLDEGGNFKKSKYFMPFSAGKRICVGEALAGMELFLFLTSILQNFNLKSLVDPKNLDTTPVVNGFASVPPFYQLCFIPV
# Cytochrome P450 3A4 = Cytochrome P450 3A4 (Homo sapiens, UniProt P08684);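 further: CYP3A4 tested as one member of a cytochrome P450 panel screen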
# Sequence of Cytochrome P450 3A4 (P08684 whole entry): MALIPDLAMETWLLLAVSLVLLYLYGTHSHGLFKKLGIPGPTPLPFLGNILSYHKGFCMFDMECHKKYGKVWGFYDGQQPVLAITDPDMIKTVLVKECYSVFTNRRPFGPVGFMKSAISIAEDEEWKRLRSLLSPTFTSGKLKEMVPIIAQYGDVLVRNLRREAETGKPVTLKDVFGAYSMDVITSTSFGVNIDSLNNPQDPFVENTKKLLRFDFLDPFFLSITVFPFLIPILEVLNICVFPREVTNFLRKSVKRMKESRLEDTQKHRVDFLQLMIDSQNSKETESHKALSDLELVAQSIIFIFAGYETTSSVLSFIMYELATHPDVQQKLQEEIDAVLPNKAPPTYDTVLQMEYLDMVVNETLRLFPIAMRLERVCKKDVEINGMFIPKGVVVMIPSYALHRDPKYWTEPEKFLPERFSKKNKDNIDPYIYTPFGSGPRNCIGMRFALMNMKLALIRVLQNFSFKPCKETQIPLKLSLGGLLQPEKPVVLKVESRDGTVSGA
# Cytochrome P450 1A2 = target: T2, Cytochrome P450 1A2 (Homo sapiens, UniProt P05177);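 further: PubChem cytochrome P450 panel assay, CYP1A2 panel member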
# T2 sequence (P05177 whole entry): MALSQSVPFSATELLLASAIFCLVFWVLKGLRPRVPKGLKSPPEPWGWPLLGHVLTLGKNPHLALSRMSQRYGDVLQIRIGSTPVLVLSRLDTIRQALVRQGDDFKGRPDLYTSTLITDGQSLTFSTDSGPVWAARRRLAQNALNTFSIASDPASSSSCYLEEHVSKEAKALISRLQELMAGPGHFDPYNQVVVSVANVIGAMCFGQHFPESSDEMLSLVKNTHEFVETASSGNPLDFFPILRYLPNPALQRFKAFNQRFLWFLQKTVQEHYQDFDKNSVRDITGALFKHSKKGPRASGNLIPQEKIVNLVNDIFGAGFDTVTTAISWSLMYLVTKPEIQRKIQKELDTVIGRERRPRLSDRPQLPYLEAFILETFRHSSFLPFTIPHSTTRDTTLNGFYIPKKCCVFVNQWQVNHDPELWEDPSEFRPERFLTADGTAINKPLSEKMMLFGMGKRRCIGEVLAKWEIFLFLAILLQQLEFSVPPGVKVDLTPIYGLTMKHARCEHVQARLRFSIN
# [6] = Trypanosoma cruzi growth suppression in host cells – NIH3T3 host cells, beta-gal luminescence, confirmation (AID 2044); assay type: functional, cell-based;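 further: intracellular parasites grown in NIH/3T3 mouse fibroblasts as host cells; luminescent beta-galactosidase reporter signal from transgenic T. cruzi replicating inside host cells; inhibitors lower the luminescence signal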
# [7] = NIH3T3 cell viability loss – ATP luminescence, mouse fibroblasts, counter-screen, dose response (AID 2010); assay type: functional, cell-based;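 further: cells exposed to compound for about 90 hours before reading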
smiles,measurement,setting,value
C[C@H]1CN([C@@H](C)CO)C(=O)Cc2cc(NC(=O)CCC(F)(F)F)ccc2O[C@H]1CN(C)Cc1ccc(-c2ccccc2)cc1,AC50,[1],4.88 µM (active)
O=C1NC(=O)C(=Cc2cccc(OCCOc3ccccc3)c2)C(=O)N1,IC50,Genome polyprotein,51.2 µM (active)
CN(CC(=O)Nc1ccc(Cl)c(Cl)c1)CC(=O)Nc1ccc2c(c1)OCO2,AC50,[1],10.2 µM (active)
CC(=O)Nc1ccc(S(=O)(=O)N/N=C/c2ccc(C)s2)cc1,EC50,H4,53.5 µM (active)
same,EC50,[2],33.8 µM (active)
same,EC50,[3],5.39 µM (active)
COc1ccc(C(=O)OCc2csc(C)n2)c(O)c1,EC50,H4,79.1 µM (active)
same,EC50,[2],> 120 µM (not active)
same,EC50,[3],40.5 µM (active)
O=C(NC1CCCCCC1)C1CCCN1S(=O)(=O)c1cccc2cccnc12 (stereo unspecified),AC50,[4],10.7 µM (active)
Cc1cc(C)nc(Nc2n[nH]c(COc3ccccc3)n2)n1,EC50,H4,> 120 µM (not active)
same,EC50,[2],21.8 µM (active)
same,EC50,[3],4.85 µM (active)
COc1ccc(NC2CCCN(C(=O)c3csc(C(C)C)n3)C2)cc1 (stereo unspecified),IC50,[5],139 µM (active)
same,AC50,[4],0.226 µM (active)
CC1(C)N=C(N)N=C(N)N1c1ccc(CCc2ccccc2)cc1,GI50,P388,< 0.01 µM (active)
same,GI50,P388/ADR,22.2 µM (inactive)
same,GI50,SN12K1,0.533 µM (active)
Cc1ccccc1CSc1ccc(-c2ccc3c(c2)OCO3)nn1,AC50,[1],6.68 µM (active)
C/C(=N/NC(=O)c1ccoc1C)C12CC3CC(CC(C3)C1)C2,EC50,H4,42.6 µM (active)
same,EC50,[2],> 120 µM (not active)
same,EC50,[3],> 120 µM (not active)
CC(=O)NC1=C(C#N)C(c2ccccc2)c2c(ccc3ccccc23)O1 (stereo unspecified),AC50,[1],0.733 µM (active)
C[C@]12CC[C@H](OC3OC(CO)C(O)C(O)C3O)C[C@H]1CC[C@@H]1[C@@H]2CC[C@]2(C)[C@@H](C3=CCOC3=O)CC[C@]12O (stereo partly specified) [ACTODIGIN],GI50,P388,7.76 µM (inactive)
same,GI50,P388/ADR,6.12 µM (inactive)
same,GI50,SN12K1,11 µM (inactive)
Cc1nc2cc(NC(=O)CSc3nc4c(C)cccc4cc3C#N)ccc2s1,AC50,Cytochrome P450 2C19; read-out: AC50,0.251 µM (inconclusive)
same,AC50,Cytochrome P450 2C9,3.55 µM (inconclusive)
CC(=O)Nc1ccc(OCC(O)CN2CCN(c3cc(Cl)ccc3C)CC2)cc1 (stereo unspecified),AC50,[1],1.77 µM (active)
CN(C)Cc1ccc(C(C)(C)C)cc1-c1cc(C(C)(C)C)ccc1CN(C)C,AC50,Cytochrome P450 2C19,inconclusive
O=C1c2ccccc2C(O)(C(=O)O)C1(O)CC=C(Cl)Cl (stereo unspecified),GI50,P388,> 125 µM (inactive)
same,GI50,P388/ADR,> 70.3 µM (inactive)
same,GI50,SN12K1,> 125 µM (inactive)
CS(=O)(=O)OCCCNCCCOS(C)(=O)=O,GI50,P388,418 µM (inactive)
same,GI50,P388/ADR,392 µM (inactive)
same,GI50,SN12K1,753 µM (inactive)
CC(C)c1ccc(NC2CCCN(C(=O)C3=NN(C)C(=O)CC3)C2)cc1 (stereo unspecified),AC50,[4],27.7 µM (active)
CC1CC(C)(O)C2C3(C)CCCC2(COC3=O)C12CCC1(CCOC1=O)O2 (stereo unspecified),GI50,P388,> 250 µM (inactive)
same,GI50,P388/ADR,141 µM (inactive)
same,GI50,SN12K1,> 250 µM (inactive)
NC(=O)c1ccc(N2CCCCC2)c(N2C(=O)C3CC=CCC3C2=O)c1 (stereo unspecified),AC50,Cytochrome P450 3A4,25.1 µM (inconclusive)
same,AC50,Cytochrome P450 2C19; read-out: AC50,39.8 µM (inconclusive)
CCOP(=O)(CN(CC)CCNP(=O)(OCC)OCC)OCC,AC50,Cytochrome P450 2C19; read-out: AC50,39.8 µM (inconclusive)
same,AC50,Cytochrome P450 2C9,0.126 µM (inconclusive)
COc1ccc2c(c1)[nH]c1c(=O)n(/N=C/C3C(C)C=C(C)CC3C)c(=O)[nH]c12 (stereo unspecified),AC50,[1],> 100 µM (inactive)
O=C(O)[C@H]1C[C@]2(C[C@H](C(=O)O)C2)C1 (stereo partly specified),AC50,Cytochrome P450 2C19,inconclusive
O=C(CN(c1ccc(Cl)cc1)S(=O)(=O)c1ccc(Cl)c([N+](=O)[O-])c1)NCCc1ccc(F)cc1,AC50,[1],2.15 µM (active)
OCC1OC(n2cnc3c2NC=NC[C@H]3O)C(O)C1O (stereo partly specified),GI50,P388,> 366 µM (inactive)
same,GI50,P388/ADR,> 366 µM (inactive)
same,GI50,SN12K1,224 µM (inactive)
COC(=O)N1CCC2(CCCN(C(c3ccccc3)c3ccccc3)C2)CC1,AC50,Cytochrome P450 1A2,15.8 µM (inconclusive)
same,AC50,Cytochrome P450 2C19; read-out: AC50,25.1 µM (inconclusive)
CCn1c(=O)c(C(=O)O)c(Cl)c2cc3c(cc21)OCO3,GI50,P388,> 100 µM (inactive)
same,GI50,P388/ADR,> 100 µM (inactive)
same,GI50,SN12K1,> 100 µM (inactive)
CC(C)c1oc(=O)cc2c1C(O)C1OC(=O)C3(C)C(O)C4OC4C2(C)C13 (stereo unspecified) [NAGILACTONE],GI50,P388,0.365 µM (active)
same,GI50,P388/ADR,2.52 µM (inactive)
same,GI50,SN12K1,1.46 µM (inactive)
COc1cc(/C=N/Nc2ccccc2)ccc1O,AC50,[4],0.887 µM (active)
Cc1cc(/C=C(\C#N)C(=O)NCC2CCCO2)c(C)n1-c1ccc(Cl)cc1 (stereo unspecified),EC50,H4,8.94 µM (active)
same,EC50,[2],30.1 µM (active)
same,EC50,[3],10 µM (active)
O=C(CCl)Nc1cccc(S(=O)(=O)NC2=NCCC2)c1,EC50,H4,> 120 µM (not active)
same,EC50,[2],62.6 µM (active)
same,EC50,[3],45.1 µM (active)
CCN1CCN(/C=N/c2nc(C)cs2)CC1,EC50,H4,> 120 µM (not active)
same,EC50,[2],51.9 µM (active)
same,EC50,[3],14.2 µM (active)
Nc1ncnc2c1nc(Cl)n2[C@@H]1O[C@@H]2COP(=O)(O)O[C@H]2[C@H]1O [TOCLADESINE],GI50,P388,36.7 µM (inactive)
same,GI50,P388/ADR,4.53 µM (inactive)
same,GI50,SN12K1,7.26 µM (inactive)
CCNc1ccc(C(=O)O)cc1N,AC50,[4],1.41 µM (active)
CC(C)CCCC(C)[C@H]1CCC(C2C[C@@H](O)[C@@H]3CC(O)[C@@H](O)C[C@]3(CO)C2=O)[C@]1(C)CCO (stereo partly specified),GI50,P388,17.5 µM (inactive)
same,GI50,P388/ADR,27 µM (inactive)
same,GI50,SN12K1,18.7 µM (inactive)
O=C(O)C(Cc1cccs1)NC(=O)C(F)(F)F (stereo unspecified),GI50,P388,> 57.9 µM (inactive)
same,GI50,P388/ADR,> 100 µM (inactive)
same,GI50,SN12K1,> 100 µM (inactive)
CCOc1cc(N2CCOCC2)c(OCC)cc1NC(=O)CN1CCC(Cc2ccccc2)CC1,EC50,[6],1.36 µM (active)
same,EC50,[7],> 60 µM (not active)
same,AC50,[1],2.28 µM (active)
